A short description of data set [1]: Metabolic stability test, rat. Type of data set: in vitro ADME. The settings on record: 30 minutes.
A further data set concerns the target recombinant human ACC1 (Homo sapiens (Human), UniProt Q13085). Kind of data set: Measurement of inhibitory activity of human ACC1 (MALDI-TOF MS). Type of data set: biochemical. The settings on record: read-out: IC50 hACC1. The source says: A cDNA encoding human ACC1 protein (1 amino acid residue to 2346 amino acid residues from the N-terminus) was cloned from a human liver cDNA library (BioChain Institute Inc.), myc tag and His-tag sequences were introduced at the 3′ end, and then inserted into pIEXBAC3 (Novagen). A recombinant baculovirus was produced in accordance with the protocol for Flash BACGOLD (Oxford Expression Technologies Ltd.), and Sf-9 cells were infected therewith to express human ACC1 protein. The recovered cells were crushed, filtered through a filter, and then subjected to Ni affinity chromatography and anion exchange chromatography. Fractions containing human ACC1 protein were collected to obtain recombinant human ACC1.
The recombinant human ACC1 and the recombinant human ACC2 obtained from the above Preparation Examples were preincubated in an assay buffer (50 mM HEPES-KOH (pH 7.4), 10 mM magnesium chloride, 6 to 10 mM potassium citrate, 4 mM glutathione reduced form, and 1.5 mg/ml bovine serum albumin) for 1 hour. Then, 5 μL of the pre-incubated enzyme solution and 5 μL of a substrate solution (50 mM HEPES-KOH (pH 7.4), 1 mM ATP, 0.8 mM acetyl-CoA, and 25 to 50 mM potassium bicarbonate) were added to a 384-well microplate into which 0.2 μl of each of solutions of the compound of the present invention (DMSO had been dispensed, and the mixture was centrifuged and shaken, and then incubated in a wet box at room temperature for 1 to 3 hours. After incubation, the enzymatic reaction was stopped by addition of EDTA, and then the sample was co-crystallized with an α-cyano-4-hydroxy cinnamic acid (CHCA) matrix on a MALDI target plate, and measurement was performed in a reflector negative mode using a matrix-assisted laser desorption ionization-time-of-flight mass spectrometer (MALDI-TOF MS). Deprotonated ions of the substrate acetyl-CoA (AcCoA) and the reaction product malonyl-CoA (MalCoA) were detected, and the intensity of each signal was used to calculate a conversion rate to malonyl-CoA or succinyl-CoA, i.e., intensity of [MalCoA-H]—/(intensity of [MalCoA-H]-+intensity of [AcCoA.H].). […] The potassium citrate concentration in the assay buffer, the potassium bicarbonate concentration in the substrate solution, and the incubation time were adjusted within the above concentrations or reaction times for each lot of the enzyme to be used.

Data set [2] can be described thus: Metabolic stability test, human liver microsomes. Type of data set: in vitro ADME. The settings on record: 37° C., 30 minutes, NADPH. The protocol:
Commercially available pooled human liver microsomes were reacted with the compound of the present invention for a given time. A residual rate was calculated by comparison between the reacted sample and the unreacted sample to evaluate a degree at which the compound of the present invention is metabolized in the liver.
The compound was reacted at 37° C. for 0 minutes or 30 minutes in the presence of 1 mmol/L NADPH in 0.2 mL of a buffer (50 mmol/L Tris-HCl pH 7.4, 150 mmol/L potassium chloride, and 10 mmol/L magnesium chloride) containing 0.5 mg protein/mL of the human liver microsomes (oxidative reaction). After the reaction, 50 μL of the reaction solution was added to 100 μL of a solution of methanol/acetonitrile=1/1 (v/v) and mixed, and the mixture was centrifuged at 3000 rpm for 15 minutes. The compound of the present invention in the centrifuged supernatant was quantified by LC/MS/MS or solid-phase extraction (SPE)/MS. The amount of the compound of the present invention remained after the reaction was calculated with the amount of the compound at 0 minutes of the reaction defined as 100%.

Another data set addresses recombinant human ACC2 (Homo sapiens (Human), UniProt O00763). Briefly: Measurement of inhibitory activity of human ACC2 (MALDI-TOF MS). Type of data set: biochemical. Particulars: read-out: IC50 hACC2. The source says:
A cDNA encoding human ACC2 protein (27 amino acid residues to 2458 amino acid residues from the N-terminus) was cloned from a human kidney cDNA library (Clontech Laboratories, Inc.), a His-tag sequence was introduced at the 5′ end, and then inserted into pFastBac1 (Invitrogen). A recombinant baculovirus was produced in accordance with the protocol for a Bac-to-Bac baculovirus expression system (Invitrogen), and Sf-9 cells were infected therewith to express human ACC2 protein. The recovered cells were crushed, filtered through a filter, and then subjected to Ni affinity chromatography and anion exchange chromatography. Fractions containing human ACC2 protein were collected to obtain recombinant human ACC2.
The recombinant human ACC1 and the recombinant human ACC2 obtained from the above Preparation Examples were preincubated in an assay buffer (50 mM HEPES-KOH (pH 7.4), 10 mM magnesium chloride, 6 to 10 mM potassium citrate, 4 mM glutathione reduced form, and 1.5 mg/ml bovine serum albumin) for 1 hour. […] Deprotonated ions of the substrate acetyl-CoA (AcCoA) and the reaction product malonyl-CoA (MalCoA) were detected, and the intensity of each signal was used to calculate a conversion rate to malonyl-CoA or succinyl-CoA, i.e., intensity of [MalCoA-H]—/(intensity of [MalCoA-H]-+intensity of [AcCoA.H].). […] The potassium citrate concentration in the assay buffer, the potassium bicarbonate concentration in the substrate solution, and the incubation time were adjusted within the above concentrations or reaction times for each lot of the enzyme to be used.

In another data set the test system is NAFLD patients. Particulars: cited from earlier work.
A further data set concerns healthy subjects. The settings on record: repeated administration to healthy subjects; cited from earlier work.

Read-outs that look alike come from different tables or passages of the source.

The term IC50 denotes the concentration that inhibits the measured activity by half.

recombinant human ACC2, sequence (O00763 27-2458): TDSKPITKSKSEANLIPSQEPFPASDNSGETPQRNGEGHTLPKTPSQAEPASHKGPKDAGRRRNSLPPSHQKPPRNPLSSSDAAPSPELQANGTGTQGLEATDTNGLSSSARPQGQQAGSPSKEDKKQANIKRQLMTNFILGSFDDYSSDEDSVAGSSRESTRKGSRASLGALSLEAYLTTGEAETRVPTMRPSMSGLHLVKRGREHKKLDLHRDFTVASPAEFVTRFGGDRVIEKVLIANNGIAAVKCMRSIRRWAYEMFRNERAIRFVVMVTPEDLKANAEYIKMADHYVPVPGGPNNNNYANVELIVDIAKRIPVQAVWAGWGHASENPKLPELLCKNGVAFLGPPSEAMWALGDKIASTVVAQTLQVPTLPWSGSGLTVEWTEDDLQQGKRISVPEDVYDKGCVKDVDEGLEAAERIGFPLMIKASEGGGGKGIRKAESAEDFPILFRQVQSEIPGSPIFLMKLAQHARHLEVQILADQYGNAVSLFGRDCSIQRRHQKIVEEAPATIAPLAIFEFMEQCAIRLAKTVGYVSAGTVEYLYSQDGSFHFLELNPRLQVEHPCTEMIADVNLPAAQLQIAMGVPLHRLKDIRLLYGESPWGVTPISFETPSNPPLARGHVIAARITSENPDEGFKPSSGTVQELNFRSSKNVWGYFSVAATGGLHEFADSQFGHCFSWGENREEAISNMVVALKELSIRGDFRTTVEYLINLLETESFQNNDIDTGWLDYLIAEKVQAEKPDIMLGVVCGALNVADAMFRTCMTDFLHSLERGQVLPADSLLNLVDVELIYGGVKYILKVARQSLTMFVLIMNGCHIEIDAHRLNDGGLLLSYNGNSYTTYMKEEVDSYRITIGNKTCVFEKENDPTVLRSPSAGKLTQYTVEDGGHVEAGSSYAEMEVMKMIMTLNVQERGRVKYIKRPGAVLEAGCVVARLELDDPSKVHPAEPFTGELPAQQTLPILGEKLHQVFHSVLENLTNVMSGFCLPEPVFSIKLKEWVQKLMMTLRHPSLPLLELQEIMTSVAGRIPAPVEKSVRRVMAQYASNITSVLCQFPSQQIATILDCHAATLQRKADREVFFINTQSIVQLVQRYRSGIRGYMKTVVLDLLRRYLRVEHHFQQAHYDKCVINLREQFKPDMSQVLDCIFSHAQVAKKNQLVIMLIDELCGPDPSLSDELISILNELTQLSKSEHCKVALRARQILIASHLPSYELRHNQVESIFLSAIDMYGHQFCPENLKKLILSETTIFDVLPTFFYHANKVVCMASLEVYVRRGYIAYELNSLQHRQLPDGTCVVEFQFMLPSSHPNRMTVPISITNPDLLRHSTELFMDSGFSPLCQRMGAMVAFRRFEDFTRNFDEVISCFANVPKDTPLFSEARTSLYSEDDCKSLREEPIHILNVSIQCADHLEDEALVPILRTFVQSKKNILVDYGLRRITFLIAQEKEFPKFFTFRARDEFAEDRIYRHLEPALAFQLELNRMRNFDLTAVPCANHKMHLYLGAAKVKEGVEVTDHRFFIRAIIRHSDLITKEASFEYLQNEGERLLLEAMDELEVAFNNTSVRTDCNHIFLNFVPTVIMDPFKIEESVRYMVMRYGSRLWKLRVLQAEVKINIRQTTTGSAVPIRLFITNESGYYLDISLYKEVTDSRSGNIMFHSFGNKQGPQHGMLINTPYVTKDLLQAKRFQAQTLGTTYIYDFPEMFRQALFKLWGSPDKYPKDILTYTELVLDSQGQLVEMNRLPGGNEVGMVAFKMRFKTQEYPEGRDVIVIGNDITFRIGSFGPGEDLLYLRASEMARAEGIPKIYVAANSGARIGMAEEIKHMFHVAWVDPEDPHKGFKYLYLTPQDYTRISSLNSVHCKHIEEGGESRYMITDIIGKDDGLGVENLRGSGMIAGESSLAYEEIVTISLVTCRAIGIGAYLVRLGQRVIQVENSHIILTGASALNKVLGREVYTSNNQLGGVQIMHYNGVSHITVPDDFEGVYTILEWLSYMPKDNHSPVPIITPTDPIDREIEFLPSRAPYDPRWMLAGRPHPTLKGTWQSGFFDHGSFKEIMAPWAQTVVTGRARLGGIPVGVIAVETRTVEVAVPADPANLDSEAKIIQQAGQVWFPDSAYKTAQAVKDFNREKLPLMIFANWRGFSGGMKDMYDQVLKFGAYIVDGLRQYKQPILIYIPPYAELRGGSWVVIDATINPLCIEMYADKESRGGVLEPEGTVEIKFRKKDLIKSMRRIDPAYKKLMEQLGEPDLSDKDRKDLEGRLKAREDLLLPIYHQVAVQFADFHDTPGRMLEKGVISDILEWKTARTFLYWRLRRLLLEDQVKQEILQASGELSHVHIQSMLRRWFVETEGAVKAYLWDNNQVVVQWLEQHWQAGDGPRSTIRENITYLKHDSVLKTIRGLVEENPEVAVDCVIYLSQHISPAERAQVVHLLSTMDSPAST

`CC(=O)N[C@@H](C)COC1CCC(Oc2nc3c(Cl)cc(OC4CC4)cc3n2C)CC1` (stereo partly drawn) [Compound I-3]: the “Remaining amount of compound, Rat” value in data set [1] was 82.6%. For the same compound, the IC50 on recombinant human ACC1 turned out to be 2800 nM. In addition, in data set [2], the “Remaining amount of compound, Human” value is given as 80.3%.

Regarding `Cn1c(OC2CCC(OC[C@H](CF)NC(N)=O)CC2)nc2c(F)cc(OC3CC3)cc21` (stereo partly drawn) [Compound I-5], the “Remaining amount of compound, Rat” value in data set [1] turned out to be 83.4%. In addition, the values for the IC50 on recombinant human ACC1 and at recombinant human ACC2 were 6900 nM and 8.9 nM, respectively. Besides, the “Remaining amount of compound, Human” value in data set [2] stood at 98.9%.

As for `C[C@@H](CCC1OCC(Oc2nc3c(F)cc(OCC(F)F)c(F)c3n2C)CO1)NC(N)=O` (stereo partly drawn) [Compound I-11], the “Remaining amount of compound, Rat” value in data set [1] worked out at 94.5%. The IC50 amounted to 7000 nM on recombinant human ACC1 and 9.6 nM at recombinant human ACC2. Also, the “Remaining amount of compound, Human” value in data set [2] worked out at 95.8%.

As for `C[C@@H](COC1CCC(Oc2nc3c(Cl)cc(OC4CC4)cc3n2C)CC1)NC(N)=O` (stereo partly drawn) [Compound I-8], the “Remaining amount of compound, Rat” value in data set [1] is recorded as 85.4%. Also, the IC50 was 6200 nM at recombinant human ACC1 and 17 nM on recombinant human ACC2. Also, in data set [2], the “Remaining amount of compound, Human” value is given as 83.6%.

On to `COc1ccccc1[C@H](Cn1c(=O)n(C(C)(C)C(=O)O)c(=O)c2c(C)c(-c3ncco3)sc21)OC1CCOCC1` [firsocostat], for which the Plasma triglyceride concentration result with NAFLD patients (phase II study over 12 weeks) was “elevated”.

For `CC(=O)N[C@@H](C)CC(F)(F)[C@@H]1CCC(Oc2nc3c(F)cc(OCC(F)F)c(F)c3n2C)CO1` (stereo partly drawn) [Compound I-10], the IC50 was above 100000 nM at recombinant human ACC1 and 89 nM at recombinant human ACC2.

With `CC(=O)N[C@@H](C)C(F)(F)C[C@H]1CCC(Oc2nc3c(F)cc(OCC(F)F)c(F)c3n2C)CO1` (stereo partly drawn) [Compound I-7], the “Remaining amount of compound, Rat” value in data set [1] is listed as 74.7%. For the same compound, the IC50 is 25000 nM on recombinant human ACC1 and 180 nM on recombinant human ACC2. Besides, in data set [2], the “Remaining amount of compound, Human” value amounted to 89.1%.

For the compound `CC(=O)N[C@@H](C)CCC1CCC(Oc2nc3c(F)cc(OC4CC4)cc3n2C)CC1` (stereo partly drawn) [Compound I-15], the “Remaining amount of compound, Rat” value in data set [1] was found to be 76.2%. For the same compound, the figures for the IC50 on recombinant human ACC1 and at recombinant human ACC2 were 1700 nM and 3.8 nM, respectively. Moreover, the “Remaining amount of compound, Human” value in data set [2] is given as 80.2%.

Turning to `CC(=O)N[C@@H](C)COC1CCC(Oc2nc3c(F)cc(OC4CCC4)cc3n2C)CC1` (stereo partly drawn) [Compound I-1], at recombinant human ACC1, the IC50 stood at 320 nM.

For `CC(=O)N[C@@H](CF)COC1CCC(Oc2nc3c(F)cc(OC4CC4)cc3n2C)CC1` (stereo partly drawn) [Compound I-4], the “Remaining amount of compound, Rat” value in data set [1] was 87.3%. The IC50 on recombinant human ACC1 came out at 2700 nM; on recombinant human ACC2, 4.7 nM. The “Remaining amount of compound, Human” value in data set [2] is 93.4%.

`Cc1nc2ccc(C(=O)N3CCC4(CC3)CC(=O)c3c(cnn3C(C)C)C4)cc2[nH]1` [PF-05175157]: the platelet concentration result in the data set on healthy subjects is recorded as “reduced”.

`COc1cc(C(=O)N2CCC3(CC2)CC(=O)c2cc(-c4cncc(C(=O)O)c4)ccc2O3)cc2c1c(C)cn2C1CC1` [MK-4074]: the Plasma triglyceride concentration result with NAFLD patients was “elevated”.

These data come from patent publication US20250041279A1, “THERAPEUTIC MEDICINE FOR HEART DISEASE OR SKELETAL MUSCLE DISEASE” (SHIONOGI & CO., LTD., priority 2021, published 2025).
